The source of these data is patent US8962628B2, “Herbicidal 5H-quinoxaline-6-one derivatives detailed description” (Syngenta Limited, priority 2010, dated 2015).

Common to all, as to type: in vivo
The subject of test [1] is Ipomea hederaceae. Kind of test: Herbicidal action post-emergence (Example B2). The conditions noted are these: post-emergence spray with adjuvant X-77, rate 500 g/ha, evaluated after 15 days; 10=total damage to plant, 0=no damage to plant. The procedure: (§1) Seeds of crop and representative weed species were sown in standard soil in pots. After cultivation for 14 days under controlled conditions in a glasshouse (at 22/16° C., day/night; 16 hours light; 65% humidity), the plants were sprayed. The spray solution was prepared by dissolving the technical active ingredient in acetone containing 10.56 wt % Emulsogen EL, 42.22 wt % N-methylpyrrolidone and 2.22 wt % DPG-monoethyl ether to give a 5% stock solution. This was then diluted with water containing 0.2% (v/v) of the adjuvant X-77 to give the desired treatment concentration.
(§2) The test plants were then grown on under controlled conditions in a glasshouse (at 22/16° C., day/night; 16 hours light; 65% humidity) and watered twice daily. After 15 days the test was evaluated (10=total damage to plant; 0=no damage to plant).

Test [2] deals with Setaria faberi. Briefly: Herbicidal action post-emergence (Example B2). To be noted: post-emergence spray with adjuvant X-77, rate 500 g/ha, evaluated after 15 days; 10=total damage to plant, 0=no damage to plant. The procedure:
as §1, §2

Test [3] has as its system Echinochloa crus-galli. Briefly: Herbicidal action post-emergence (Example B2). To be noted: post-emergence spray with adjuvant X-77, rate 500 g/ha, evaluated after 15 days; 10=total damage to plant, 0=no damage to plant. The procedure: as §1, §2
The test system of test [4] is Amaranthus retroflexus. Kind of test: Herbicidal action post-emergence (Example B2). The conditions noted are these: post-emergence spray with adjuvant X-77, rate 500 g/ha, evaluated after 15 days; 10=total damage to plant, 0=no damage to plant. How it is done: as §1, §2
Test [5] relates to Ipomea hederaceae. Briefly: Herbicidal action post-emergence (Example B1). The conditions noted are these: post-emergence spray, rate 1000 g/ha, evaluated after 13 days; 10=total damage to plant, 0=no damage to plant. The procedure:
(§3) Seeds of a variety of test species were sown in standard soil in pots. After 8 days cultivation (post-emergence) under controlled conditions in a glasshouse (at 24/16° C., day/night; 14 hours light; 65% humidity), the plants were sprayed with an aqueous spray solution derived from the formulation of the technical active ingredient in acetone/water (50:50) solution containing 0.5% Tween 20 (polyoxyethelyene sorbitan monolaurate, CAS RN 9005-64-5). The test plants were then grown under controlled conditions in a glasshouse (at 24/16° C., day/night; 14 hours light; 65% humidity) and watered twice daily. After 13 days, the test was evaluated (10=total damage to plant; 0=no damage to plant).

In test [6] the test system is Setaria faberi. Kind of test: Herbicidal action post-emergence (Example B1). To be noted: post-emergence spray, rate 1000 g/ha, evaluated after 13 days; 10=total damage to plant, 0=no damage to plant. The procedure:
as §3

The test system of test [7] is Echinochloa crus-galli. Kind of test: Herbicidal action post-emergence (Example B1). To be noted: post-emergence spray, rate 1000 g/ha, evaluated after 13 days; 10=total damage to plant, 0=no damage to plant. The procedure:
as §3

Another test has as its system Solanum nigrum. Kind of test: Herbicidal action post-emergence (Example B1). The conditions noted are these: post-emergence spray, rate 1000 g/ha, evaluated after 13 days; 10=total damage to plant, 0=no damage to plant. How it is done:
as §3

Test [8] deals with Amaranthus retroflexus. Kind of test: Herbicidal action post-emergence (Example B1). The conditions noted are these: post-emergence spray, rate 1000 g/ha, evaluated after 13 days; 10=total damage to plant, 0=no damage to plant. How it is done: as §3

Turning to `CC1(C)C(=O)C(c2ccccc2C(F)(F)F)C(=O)c2nccnc21` (stereo not shown) [Compound E1, 8,8-dimethyl-6-(2-trifluoromethyl-phenyl)-8H-quinoxaline-5,7-dione], the “IPOHE damage to plant (score 0-10)” value in the test on Ipomea hederaceae [1] is 8; in the test with Ipomea hederaceae [5], 9. Further, the entries for the “SETFA damage to plant (score 0-10)” value in the test on Setaria faberi [2] and in the test on Setaria faberi [6] were 7 and 9, respectively. Also, the “ECHCG damage to plant (score 0-10)” value was 3 with Echinochloa crus-galli [3] and 9 in the test with Echinochloa crus-galli [7]. The “AMARE damage to plant (score 0-10)” value in the test on Amaranthus retroflexus [4] and in the test with Amaranthus retroflexus [8] was 10 in each case. Also, in the test with Solanum nigrum, the “SOLNI damage to plant (score 0-10)” value turned out to be 10.
`CC(C)C(=O)OC1=C(c2ccccc2C(F)(F)F)C(=O)C(C)(C)c2nccnc21` [Compound F1, isobutyric acid 8,8-dimethyl-7-oxo-6-(2-trifluoromethyl-phenyl)-7,8-dihydro-quinoxalin-5-yl ester]: in the test with Ipomea hederaceae [1], the “IPOHE damage to plant (score 0-10)” value came out at 8. Moreover, in the test with Setaria faberi [2], the “SETFA damage to plant (score 0-10)” value is listed as 8. Further, the “ECHCG damage to plant (score 0-10)” value with Echinochloa crus-galli [3] stood at 8. For the same molecule, the “AMARE damage to plant (score 0-10)” value in the test with Amaranthus retroflexus [4] was determined as 10.
